Test results reported in US10988440B2, “FTO inhibitors” (National Institute of Biological Sciences, Beijing, priority 2015, dated 2021).
Where two headings read alike, the source gives them in different places.

What was measured:
[1] = Rat liver microsome stability assay; assay type: in vitro ADME; details: liver microsomes, pH 7.4, rat liver microsome 1 mg/ml, test compound 2 μM, NADPH 1 mM, 37° C.
[2] = tested on: COMT enzyme; test: COMT inhibition assay (reaction kinetic model, esculetin fluorescence); assay type: biochemical; details: normalized COMT/FTO value: (COMTcompound/FTOcompound)/(COMTentacapone/FTOentacapone)
[3] = target: T1, COMT enzyme (Homo sapiens, UniProt P21964); test: as above; assay type: biochemical; details: for inhibition at 0.05 µM: read-out: COMT inhibition at 50 nM; for inhibition at 0.2 µM: read-out: COMT inhibition at 200 nM
T1 construct: COMT (μM); other: at 200 nM; other: at 50 nM; The reaction system contains 1U COMT enzyme, test article, 4 μM Esculetin, 0.6 mM AdoMet, 50 mM K3PO4, and 10 mM MgCl2
T1 sequence (P21964 1-271): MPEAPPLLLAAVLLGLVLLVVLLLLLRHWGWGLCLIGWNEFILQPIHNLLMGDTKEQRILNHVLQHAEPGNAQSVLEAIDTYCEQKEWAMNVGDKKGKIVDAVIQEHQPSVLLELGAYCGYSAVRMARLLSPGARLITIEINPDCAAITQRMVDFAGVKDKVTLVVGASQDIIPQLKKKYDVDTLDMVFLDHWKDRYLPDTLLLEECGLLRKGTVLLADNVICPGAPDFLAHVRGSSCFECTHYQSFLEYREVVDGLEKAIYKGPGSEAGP

[4] = target: FTO (Homo sapiens, UniProt Q9C0B1); test: demethylation reaction catalyzed by FTO (enzymatic inhibition, HPLC-MS/MS of N6-mA and A); assay type: biochemical
[5] = read-out: Rat Liver Microsome CLint (μL/min/mg protein)
[6] = read-out: Rat Liver Microsome T½
[7] = exemplary IC50 data of representative compounds, read-out: Enzymatic inhibition (IC50)
[8] = selectivity table, read-out: FTO

FTO, sequence (Q9C0B1 whole entry): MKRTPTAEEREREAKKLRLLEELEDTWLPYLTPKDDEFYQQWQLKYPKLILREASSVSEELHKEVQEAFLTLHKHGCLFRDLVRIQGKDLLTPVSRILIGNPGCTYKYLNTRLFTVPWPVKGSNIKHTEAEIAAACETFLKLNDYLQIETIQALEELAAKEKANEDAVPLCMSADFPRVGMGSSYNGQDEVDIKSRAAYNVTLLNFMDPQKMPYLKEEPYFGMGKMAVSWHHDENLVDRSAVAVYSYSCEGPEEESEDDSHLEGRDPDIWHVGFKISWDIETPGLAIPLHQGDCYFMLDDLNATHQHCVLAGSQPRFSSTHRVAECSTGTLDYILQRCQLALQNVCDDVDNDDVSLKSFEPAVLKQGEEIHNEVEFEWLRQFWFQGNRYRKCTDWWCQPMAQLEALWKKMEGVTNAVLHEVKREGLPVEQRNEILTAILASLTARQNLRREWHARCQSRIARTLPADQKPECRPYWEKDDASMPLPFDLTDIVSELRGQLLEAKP

| Compound | microsomal CLint at 1 h, 2 µM [1, 5] | half-life at 1 h, 2 µM [1, 6] | Selectivity Index* [2] | IC50 [3] | IC50 [4, 7] | IC50 [4, 8] | inhibition at 0.05 µM [3] | inhibition at 0.2 µM [3] | microsomal CLint at 2 μM [1, 5] | half-life at 2 μM [1, 6] |
| --- | --- | --- | --- | --- | --- | --- | --- | --- | --- | --- |
| N#C/C(=C\c1cc(O)c(O)c([N+](=O)[O-])c1)c1cnc(C(=O)O)cn1 [Compound 655, (Z)-5-(1-cyano-2-(3,4-dihydroxy-5-nitrophenyl)vinyl)pyrazine-2-carboxylic Acid] | 1.6 µL/min/mg | 7.22 h | 4.00 | 24 nM | < 1000 nM | 300 nM |  |  |  |  |
| N#CC(=Cc1cc(O)c(O)c([N+](=O)[O-])c1)c1ccccn1 (stereo in doubt) [Compound 315, (E)-3-(3,4-dihydroxy-5-nitrophenyl)-2-(pyridin-2-yl)acrylonitrile] | 310 µL/min/mg | 0.0373 h |  |  | ~1000 nM | 1000 nM | 19% | 70% |  |  |
| N#C/C(=C\c1cc(O)c(O)c([N+](=O)[O-])c1)C(=O)Nc1nccs1 [Compound 331, (E)-2-cyano-3-(3,4-dihydroxy-5-nitrophenyl)-N-(thiazol-2-yl)acrylamide] | 7.4 µL/min/mg | 1.56 h |  |  | ~1000 nM | 1000 nM | 25% | 54% |  |  |
| N#C/C(=C\c1cc(O)c(O)c([N+](=O)[O-])c1)C(=O)N1CCC1 [Compound 687] | 284 µL/min/mg | 0.0407 h |  | 33 nM | < 1000 nM | 1000 nM |  |  |  |  |
| N#C/C(=C(/O)c1cc(O)c(O)c([N+](=O)[O-])c1)c1ccncn1 [Compound 525, (E)-3-(3,4-dihydroxy-5-nitrophenyl)-3-hydroxy-2-(pyrimidin-4-yl)acrylonitrile] | 10.9 µL/min/mg | 1.06 h |  |  | < 1000 nM | 500 nM | 39% | 74% |  |  |
| N#C/C(=C(/O)c1cc(O)c(O)c([N+](=O)[O-])c1)c1nccs1 [Compound 503, 3-(3,4-dihydroxy-5-nitrophenyl)-3-oxo-2-(thiazol-2-yl)propanenitrile] | 0.5 µL/min/mg | 23.1 h |  |  | ~1000 nM | 1500 nM | 9% | 24% |  |  |
| N#C/C(=C\c1cc(O)c(O)c([N+](=O)[O-])c1)C(=O)N1CCCCC1 [Compound 371, (E)-3-(3,4-dihydroxy-5-nitrophenyl)-2-(piperidine-1-carbonyl)acrylonitrile] | 43 µL/min/mg | 0.268 h |  |  |  |  | 33% | 71% |  |  |
| N#C/C(C(=O)N1CCC1)=C(/O)c1cc(O)c(O)c([N+](=O)[O-])c1 [Compound 701, (Z)-2-(azetidine-1-carbonyl)-3-(3,4-dihydroxy-5-nitrophenyl)-3-hydroxyacrylonitrile] |  |  | 237.33 | 3560 nM | < 1000 nM | 750 nM |  |  |  |  |
| CCN(CC)C(=O)/C(C#N)=C(\O)c1cc(O)c(O)c([N+](=O)[O-])c1 [Compound 347, 2-cyano-3-(3,4-dihydroxy-5-nitrophenyl)-N,N-diethyl-3-oxopropanamide] | 0.1 µL/min/mg | 116 h |  | 551 nM |  |  |  |  |  |  |
| N#C/C(=C(/O)c1cc(O)c(O)c([N+](=O)[O-])c1)c1ccccn1 [Compound 351, 3-(3,4-dihydroxy-5-nitrophenyl)-3-oxo-2-(pyridin-2-yl)propanenitrile] | 9 µL/min/mg | 1.28 h |  |  | < 1000 nM | 750 nM | 33% | 80% |  |  |
| CCN(CC)C(=O)C(C#N)=C(NC)c1cc(O)c(O)c([N+](=O)[O-])c1 [Compound 347M, 2-cyano-3-(3,4-dihydroxy-5-nitrophenyl)-N,N-diethyl-3-(methylamino)acrylamide] |  |  | 8.10 | 162 nM | ~1000 nM | 1000 nM |  |  | 12.2 µL/min/mg | 0.947 h |
| N#C/C(C(=O)Nc1nccs1)=C(/O)c1cc(O)c(O)c([N+](=O)[O-])c1 [Compound 374, 2-cyano-3-(3,4-dihydroxy-5-nitrophenyl)-3-oxo-N-(thiazol-2-yl)propanamide] | 0.6 µL/min/mg | 19.2 h | 6.50 | 65 nM | < 1000 nM | 500 nM |  |  |  |  |
| N#C/C(=C\c1cc(O)c(O)c([N+](=O)[O-])c1)c1cnccn1 [Compound 396] | 20.9 µL/min/mg | 0.553 h | 21.60 | 108 nM | < 1000 nM | 250 nM |  |  |  |  |
| N#C/C(C(=O)N1CCCCC1)=C(/O)c1cc(O)c(O)c([N+](=O)[O-])c1 [Compound 661, (Z)-3-(3,4-dihydroxy-5-nitrophenyl)-3-hydroxy-2-(piperidine-1-carbonyl)acrylonitrile] | 2.2 µL/min/mg | 5.25 h |  |  | ~1000 nM | 1000 nM | 12% | 26% |  |  |
| N#C/C(=C(/O)c1cc(O)c(O)c([N+](=O)[O-])c1)c1cnc(C(=O)O)cn1 [Compound 697, (E)-5-(1-cyano-2-(3,4-dihydroxy-5-nitrophenyl)-2-hydroxyvinyl) pyrazine-2-carboxylic Acid] | 1.1 µL/min/mg | 10.5 h |  |  | < 1000 nM | 750 nM | -3% | 33% |  |  |
| CCN(CC)C(=O)/C(C#N)=C/c1cc(O)c(O)c([N+](=O)[O-])c1 [Entacapone, entacapone, reference compound] | 17.7 µL/min/mg | 0.653 h |  |  |  |  |  |  |  |  |
| N#C/C(=C\c1cc(O)c(O)c([N+](=O)[O-])c1)c1nccs1 [Compound 390] | 266 µL/min/mg | 0.0435 h |  |  | ~1000 nM | 1000 nM | 12% | 36% |  |  |
| CCN(CC)C(=O)/C(C#N)=C(\N)c1cc(O)c(O)c([N+](=O)[O-])c1 [Compound 347N] | 4.9 µL/min/mg | 2.35 h | 21.40 | 214 nM | < 1000 nM | 500 nM |  |  |  |  |
| N#C/C(C(=O)N1CCCCC1)=C(/N)c1cc(O)c(O)c([N+](=O)[O-])c1 [Compound 661N, 3-amino-3-(3,4-dihydroxy-5-nitrophenyl)-2-(piperidine-1-carbonyl)acrylonitrile] | 10.3 µL/min/mg | 1.12 h |  |  | < 1000 nM | 750 nM | 35% | 64% |  |  |
| N#C/C(=C(/O)c1cc(O)c(O)c([N+](=O)[O-])c1)c1cnccn1 [Compound 523, 3-(3,4-dihydroxy-5-nitrophenyl)-3-hydroxy-2-(pyrazin-2-yl)acrylonitrile] | 2.9 µL/min/mg | 3.98 h | 10.50 | 105 nM | < 1000 nM | 500 nM |  |  |  |  |
| N#C/C(=C\c1cc(O)c(O)c([N+](=O)[O-])c1)c1ccncn1 [Compound 395, 3-(3,4-dihydroxy-5-nitrophenyl)-2-(pyrimidin-4-yl)acrylonitrile] | 12.6 µL/min/mg | 0.917 h |  |  | < 1000 nM | 500 nM | 36% | 74% |  |  |
| N#C/C(=C\c1cc(O)c(O)c([N+](=O)[O-])c1)c1ccncc1 [Compound 389] |  |  |  |  | ~1000 nM |  |  |  |  |  |
